System: P12-Ichikawa
Assay: cell viability relative to DMSO control; higher = less cytotoxic
Settings: 48 h
How it was run: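 NOMO1, SEM and P12-Ichikawa leukemia cells spent at least four passages adapting to each medium before use. They were seeded at 500 cells/well (NOMO1, SEM) or 1000 cells/well (P12-Ichikawa) in 5 μl in 1536-well plates and pin-dosed with library compounds in DMSO at 11 threefold steps from 47 μM down to 0.79 nM. After 48 h at 37°C, CellTiter-Glo One luminescence was read. Viability is reported as a percentage of the DMSO wells on each plate, with cell-free wells as background.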

[1] = HPLM + 10% dialyzed FBS, 0.000781 µM
[2] = HPLM + 10% dialyzed FBS, 0.00234 µM
[3] = HPLM + 10% dialyzed FBS, 0.00702 µM
[4] = HPLM + 10% dialyzed FBS, 0.0211 µM
[5] = HPLM + 10% dialyzed FBS, 0.0632 µM
[6] = HPLM + 10% dialyzed FBS, 0.19 µM
[7] = HPLM + 10% dialyzed FBS, 0.569 µM
[8] = HPLM + 10% dialyzed FBS, 1.71 µM
[9] = HPLM + 10% dialyzed FBS, 5.12 µM
[10] = HPLM + 10% dialyzed FBS, 15.4 µM
[11] = HPLM + 10% dialyzed FBS, 46.1 µM
[12] = RPMI 5 mM glucose + 10% FBS, 0.000781 µM
[13] = RPMI 5 mM glucose + 10% FBS, 0.00234 µM
[14] = RPMI 5 mM glucose + 10% FBS, 0.00702 µM
[15] = RPMI 5 mM glucose + 10% FBS, 0.0211 µM
[16] = RPMI 5 mM glucose + 10% FBS, 0.0632 µM
[17] = RPMI 5 mM glucose + 10% FBS, 0.19 µM
[18] = RPMI 5 mM glucose + 10% FBS, 0.569 µM
[19] = RPMI 5 mM glucose + 10% FBS, 1.71 µM
[20] = RPMI 5 mM glucose + 10% FBS, 5.12 µM
[21] = RPMI 5 mM glucose + 10% FBS, 15.4 µM
[22] = RPMI 5 mM glucose + 10% FBS, 46.1 µM
[23] = RPMI 5 mM glucose + 10% dialyzed FBS, 0.000781 µM
[24] = RPMI 5 mM glucose + 10% dialyzed FBS, 0.00234 µM
[25] = RPMI 5 mM glucose + 10% dialyzed FBS, 0.00702 µM
[26] = RPMI 5 mM glucose + 10% dialyzed FBS, 0.0211 µM
[27] = RPMI 5 mM glucose + 10% dialyzed FBS, 0.0632 µM
[28] = RPMI 5 mM glucose + 10% dialyzed FBS, 0.19 µM
[29] = RPMI 5 mM glucose + 10% dialyzed FBS, 0.569 µM
[30] = RPMI 5 mM glucose + 10% dialyzed FBS, 1.71 µM
[31] = RPMI 5 mM glucose + 10% dialyzed FBS, 5.12 µM
[32] = RPMI 5 mM glucose + 10% dialyzed FBS, 15.4 µM
[33] = RPMI 5 mM glucose + 10% dialyzed FBS, 46.1 µM

Compound	cell viability [1] [%]	cell viability [2] [%]	cell viability [3] [%]	cell viability [4] [%]	cell viability [5] [%]	cell viability [6] [%]	cell viability [7] [%]	cell viability [8] [%]	cell viability [9] [%]	cell viability [10] [%]	cell viability [11] [%]	cell viability [12] [%]	cell viability [13] [%]	cell viability [14] [%]	cell viability [15] [%]	cell viability [16] [%]	cell viability [17] [%]	cell viability [18] [%]	cell viability [19] [%]	cell viability [20] [%]	cell viability [21] [%]	cell viability [22] [%]	cell viability [23] [%]	cell viability [24] [%]	cell viability [25] [%]	cell viability [26] [%]	cell viability [27] [%]	cell viability [28] [%]	cell viability [29] [%]	cell viability [30] [%]	cell viability [31] [%]	cell viability [32] [%]	cell viability [33] [%]
COC(=O)Nc1nc2cc(Sc3ccccc3)ccc2[nH]1	124	115	119	108	112	114	111	96	19.5	25.2	31.8	112	113	118	111	113	124	115	97.6	16.8	29.3	28.7	101	109	120	114	113	111	102	90	24.5	30.4	35.5
N[S+](=O)([O-])c1cc2c(cc1Cl)NCN[S+]2(=O)[O-]	94.4	103	104	110	112	116	116	113	111	110	104	111	115	110	125	118	126	126	121	108	118	120	110	106	108	105	116	105	111	116	118	107	104
O=C(/C=C/c1cccnc1)NCCCCC1CCN(C(=O)c2ccccc2)CC1	103	72.1	15.1	7.38	5.18	4.94	4.8	4.59	4.4	4	2.9	103	109	16.9	6.84	5.28	5.01	4.19	4.32	3.69	2.71	1.74	102	109	24.4	8.02	5.06	4.88	4.59	4.67	3.92	2.96	2.11
CN1C(=O)\C(=C/C2=C1N=C(NC3CCOCC3)N=C2)OC4=C(F)C=C(F)C=C4	92.5	96.2	95.4	95.3	96.9	90.2	87.5	93.2	82.6	87.2	50.7	92.3	90.3	93.5	95.2	96.1	96.6	91.8	90	90.5	90.4	39.4	100	94.7	90.6	87.1	96.3	99.1	93.5	86.7	79.3	81.8	35.9
O=C(Nc1cccc2c(=O)cc(-c3nnn[nH]3)oc12)c1ccc(OCCCCc2ccccc2)cc1	86.7	84.2	90.4	93.9	101	94.8	90	96	96.9	101	15.5	81	84.9	99.9	91.8	95.7	89.4	88.9	91	87.6	80	54.6	73.1	80.4	87	88.7	86.7	92.5	85.1	81.6	85.5	85.4	21.7
O=C(N[C@H]1CN2CCC1CC2)c1ccc(Cl)cc1	99.2	107	104	110	110	116	114	114	116	109	99.2	110	106	114	103	108	111	114	110	106	101	99.9	98.2	100	104	114	118	116	113	114	102	104	92.4
OC[C@H]1O[C@H](C[C@@H]1O)N2\C=C(\I)C(=O)NC2=O	113	114	120	118	115	124	119	115	98.2	64.4	58.3	110	114	124	121	129	128	132	123	115	106	96.7	118	114	108	119	114	131	127	115	114	114	110
N[C@@H](Cc1cc(I)c(Oc2cc(I)c(O)c(I)c2)c(I)c1)C(=O)O	118	116	106	113	113	103	106	109	106	101	98.6	126	120	121	113	123	124	122	107	112	114	104	111	107	108	109	109	114	103	111	104	103	101
CC(=O)O[C@@]12CO[C@@H]1C[C@H](O)[C@]3(C)[C@@H]2[C@H](OC(=O)C4=CC=CC=C4)[C@]5(O)C[C@H](O)/C(=C(/[C@@H](O)C3=O)C5(C)C)C	97.5	106	72.1	115	114	117	120	120	98.1	36.6	13.7	100	110	69.7	113	116	119	122	113	88.6	28.7	7.33	100	114	77.5	117	113	112	121	119	104	43.9	18.5
CC(=O)OCC(CCn1cnc2cnc(N)nc21)COC(C)=O	92.3	103	109	106	113	102	108	106	112	110	111	89.8	95	103	103	108	97.3	102	102	101	106	103	92.5	101	98	87.9	105	104	97	106	102	103	97.3
Cc1ccc(Nc2nccc(N(C)c3ccc4c(C)n(C)nc4c3)n2)cc1[S+](N)(=O)[O-]	105	102	105	110	108	114	113	111	104	91.9	20.8	106	115	109	109	113	116	113	111	120	78.4	23.7	99.7	101	104	102	102	99.9	110	107	108	83.3	27.8
O=C(c1ccc(C(=O)N2CCC(N3CCCC3)CC2)c(Nc2ccccc2)c1)N1CCC(N2CCCC2)CC1	103	103	103	106	108	102	106	109	98.9	96.5	94.5	104	95.3	93.7	101	98.1	100	95.8	97.4	100	92.1	95.4	98.3	97.5	95.9	96.3	100	101	103	101	91.1	96.1	86.1
COc1ccccc1OCC(O)CN1CCN(CC(=O)Nc2c(C)cccc2C)CC1 (stereo unspecified)	122	119	127	127	130	132	135	132	140	112	110	–	–	–	–	–	–	–	–	–	–	–	–	–	–	–	–	–	–	–	–	–	–
CCOC(=O)c1c(/C(C#N)=C\N)c2ccc(Cl)c(Cl)c2n1C	90.1	94.9	84.9	97.5	91.7	92.2	92.1	91.6	84.7	83	91.7	88.1	88.7	85.5	94.8	83.2	86.3	81.1	91	82.8	81.2	87.4	84.5	86.2	89.9	92.8	90.6	96.9	87.9	88.7	89	92.8	90.8
O=C(O)CCc1ccc(NCc2cccc(Oc3ccccc3)c2)cc1	94.5	107	102	104	105	111	108	109	108	119	104	99.3	105	111	105	118	111	109	109	110	122	118	88.6	96.5	103	110	103	104	103	104	100	98.6	99.9
C[C@@H](Oc1ccc2[nH]nc(/C=C/c3cnn(CCO)c3)c2c1)c1c(Cl)cncc1Cl	91.7	88.7	93.6	94.2	94.2	86.2	83.9	88.3	86.2	12.2	51.3	85.9	89.8	89.4	94.3	100	89.5	93.9	89.7	75.9	19.3	38	78.3	92.2	83.8	90.3	94.6	86.1	76.7	86.8	88.6	23.5	41.6
